Source: ChEMBL document CHEMBL5150064 (J Med Chem, 2022)
≈ marks a conversion by molar mass, not a printed value. Calls of active or inactive are those of the source. The calls are words filed in the database; no cut-off is given here.

How the values were obtained:
[1] = Antiproliferative activity against human KPL-4 cells assessed as reduction in cell viability incubated for 4 days by Celltiter-Glo luminescence assay; format: functional, cell-based; details: KPL4, 96 h
[2] = Dissociation constant, pKa of the compound; format: physicochemical
[3] = target: T1, Cytochrome P450 2C8 (Homo sapiens, UniProt P10632); test: Inhibition of CYP2C8 (unknown origin); format: ADME
T1 sequence (P10632 whole entry): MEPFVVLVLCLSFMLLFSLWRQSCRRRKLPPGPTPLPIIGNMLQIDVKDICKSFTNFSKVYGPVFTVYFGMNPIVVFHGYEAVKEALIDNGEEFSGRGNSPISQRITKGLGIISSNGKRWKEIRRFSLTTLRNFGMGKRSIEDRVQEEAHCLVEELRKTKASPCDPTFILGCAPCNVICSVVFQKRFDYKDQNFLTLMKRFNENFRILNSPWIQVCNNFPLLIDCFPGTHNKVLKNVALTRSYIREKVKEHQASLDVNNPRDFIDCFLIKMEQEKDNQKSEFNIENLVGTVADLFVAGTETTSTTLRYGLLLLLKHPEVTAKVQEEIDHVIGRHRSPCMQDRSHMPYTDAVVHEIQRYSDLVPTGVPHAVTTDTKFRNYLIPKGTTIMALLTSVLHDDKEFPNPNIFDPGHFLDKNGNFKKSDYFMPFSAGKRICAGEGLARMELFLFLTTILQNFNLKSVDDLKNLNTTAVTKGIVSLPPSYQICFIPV

[4] = system: Mus musculus; test: In vivo inhibition of PI3K in human HCC1954 cells xenografted in po dosed mouse; format: functional, organism-based; details: DDE = dose-dependent effect
[5] = target: Cytochrome P450 3A4 (Homo sapiens, UniProt P08684); test: Inhibition of CYP3A4 (unknown origin); format: ADME
Chain of Cytochrome P450 3A4 (P08684 whole entry): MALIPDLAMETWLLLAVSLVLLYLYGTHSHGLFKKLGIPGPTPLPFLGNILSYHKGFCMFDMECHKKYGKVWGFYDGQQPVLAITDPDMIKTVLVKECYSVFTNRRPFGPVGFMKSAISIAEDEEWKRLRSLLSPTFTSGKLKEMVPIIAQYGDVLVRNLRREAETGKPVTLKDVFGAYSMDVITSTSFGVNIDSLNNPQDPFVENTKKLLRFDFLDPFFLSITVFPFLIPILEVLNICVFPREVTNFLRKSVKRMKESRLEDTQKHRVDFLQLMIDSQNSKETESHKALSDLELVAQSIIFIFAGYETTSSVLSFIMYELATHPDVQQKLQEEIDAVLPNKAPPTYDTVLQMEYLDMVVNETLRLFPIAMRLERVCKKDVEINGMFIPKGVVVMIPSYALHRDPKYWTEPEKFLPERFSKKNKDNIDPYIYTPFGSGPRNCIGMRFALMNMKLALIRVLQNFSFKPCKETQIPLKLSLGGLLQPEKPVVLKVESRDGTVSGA

[6] = AUC in NCR nude mouse at 50 mg/kg, po measured upto 8 hrs by LC-MS/MS analysis; format: ADME, organism-based; set-up: dose 50 mg/kg, time < 8 hrs, route po; details: in vivo
[7] = target: Cytochrome P450 2C9 (Homo sapiens, UniProt P11712); test: Inhibition of CYP2C9 (unknown origin); format: ADME
Chain of Cytochrome P450 2C9 (P11712 whole entry): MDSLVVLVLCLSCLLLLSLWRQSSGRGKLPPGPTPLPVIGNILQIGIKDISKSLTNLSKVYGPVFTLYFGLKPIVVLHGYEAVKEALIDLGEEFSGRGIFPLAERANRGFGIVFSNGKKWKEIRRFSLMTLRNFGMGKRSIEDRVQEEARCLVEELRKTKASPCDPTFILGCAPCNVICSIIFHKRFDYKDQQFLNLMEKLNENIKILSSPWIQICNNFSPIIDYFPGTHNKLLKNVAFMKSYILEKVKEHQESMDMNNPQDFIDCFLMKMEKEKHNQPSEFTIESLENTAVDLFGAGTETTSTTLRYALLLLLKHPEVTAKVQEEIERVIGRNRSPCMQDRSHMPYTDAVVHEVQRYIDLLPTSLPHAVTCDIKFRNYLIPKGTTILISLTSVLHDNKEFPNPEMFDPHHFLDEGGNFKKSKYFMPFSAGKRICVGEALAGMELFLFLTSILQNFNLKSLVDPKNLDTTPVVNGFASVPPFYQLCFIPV

[8] = species: Homo sapiens; test: Inhibition of PI3KC2b (unknown origin) at 1 uM relative to control
[9] = Thermodynamic solubility of the compound in FaSSIF; format: physicochemical; details: read-out: Therm_solubility
[10] = system: Mus musculus; test: In vivo inhibition of PI3K in human HCC1954 cells xenografted in mouse at 50 mg/kg, po; format: functional, organism-based; details: TDE = time-dependent effect
[11] = Oral bioavailability in NCR nude mouse at 50 mg/kg measured upto 8 hrs by LC-MS/MS analysis; format: ADME, organism-based; details: in vivo
[12] = system: Phosphatidylinositol 4,5-bisphosphate 3-kinase catalytic subunit alpha isoform (Homo sapiens), P42336 [H1047R]; test: Induction of P110alpha H1047R mutant degradation in human HCC1954 cells at 0.012 to 1 uM after 24 hrs; format: cell-based; details: dose 0.012-1 µM
Chain of Phosphatidylinositol 4,5-bisphosphate 3-kinase catalytic subunit alpha isoform (Homo sapiens), P42336 [H1047R] (P42336 whole entry H1047R, canonical isoform): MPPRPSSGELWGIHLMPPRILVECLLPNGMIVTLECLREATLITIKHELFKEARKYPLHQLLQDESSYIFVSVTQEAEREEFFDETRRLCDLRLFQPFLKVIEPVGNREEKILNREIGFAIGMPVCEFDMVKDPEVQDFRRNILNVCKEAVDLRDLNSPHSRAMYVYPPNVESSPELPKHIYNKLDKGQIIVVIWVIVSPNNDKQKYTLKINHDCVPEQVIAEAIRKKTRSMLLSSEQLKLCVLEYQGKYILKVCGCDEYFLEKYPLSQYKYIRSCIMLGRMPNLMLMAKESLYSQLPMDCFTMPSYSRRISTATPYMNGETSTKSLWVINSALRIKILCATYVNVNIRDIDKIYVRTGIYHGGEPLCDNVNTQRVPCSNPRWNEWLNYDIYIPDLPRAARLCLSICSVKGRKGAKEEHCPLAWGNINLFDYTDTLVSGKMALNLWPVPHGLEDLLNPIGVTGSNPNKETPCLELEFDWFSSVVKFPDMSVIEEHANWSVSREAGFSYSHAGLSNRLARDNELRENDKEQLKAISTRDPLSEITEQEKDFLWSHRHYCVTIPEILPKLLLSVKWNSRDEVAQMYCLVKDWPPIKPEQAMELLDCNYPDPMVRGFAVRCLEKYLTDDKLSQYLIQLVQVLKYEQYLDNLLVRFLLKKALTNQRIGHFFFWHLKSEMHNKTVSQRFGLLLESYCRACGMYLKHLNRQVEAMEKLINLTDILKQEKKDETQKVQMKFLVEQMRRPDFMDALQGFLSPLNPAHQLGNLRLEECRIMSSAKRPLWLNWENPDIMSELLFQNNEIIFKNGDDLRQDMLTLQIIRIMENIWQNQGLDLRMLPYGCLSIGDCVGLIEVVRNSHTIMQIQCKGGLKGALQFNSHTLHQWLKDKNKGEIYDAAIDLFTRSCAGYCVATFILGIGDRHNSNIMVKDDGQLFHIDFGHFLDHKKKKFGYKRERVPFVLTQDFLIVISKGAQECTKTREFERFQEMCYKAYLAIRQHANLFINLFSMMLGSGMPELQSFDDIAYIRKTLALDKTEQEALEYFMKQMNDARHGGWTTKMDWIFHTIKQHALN

C[C@H](Nc1ccc2c(c1)OCCn1cc(N3C(=O)OC[C@H]3C(F)F)nc1-2)C(N)=O [INAVOLISIB]
EC50 [1]: 10 nM | pKa [2]: 3.3 | IC50 [3]: > 10 µM | inhibition [4]: Dde | IC50 [5]: > 10 µM | AUC at 8 h [6]: 32.9 µM·h | IC50 [7]: > 10 µM | inhibition [8]: > 80% | solubility thermodynamic [9]: 36 µg/mL (≈ 88.4 µM) | inhibition [10]: Tde | bioavailability [11]: 59% | Activity [12]: Active
